Reference: patent US20190055279A1, “NOVEL POLYPEPTIDES WITH IMPROVED PROTEOLYTIC STABILITY, AND METHODS OF PREPARING AND USING SAME” (TUFTS UNIVERSITY, priority 2015, published 2019)
Where two headings read alike, the source gives them in different places.

Target: T1, GLP-1R (Homo sapiens, UniProt P43220)
T1 construct: expressed in transfected cells; host or cells: HEK293
Assay: GLP-1R agonist assay: CRE6x-LUC luciferase reporter in transiently transfected HEK293 cells
Type: cell-based
Experimental: Briefly, HEK293 cells were plated at a density of 2−3×10^3 cells per well onto clear-bottom, white, 96-well plates and grown for 2 days to ˜80% confluency. Cells were then transiently transfected by using Lipofectamine reagent (Invitrogen) with cDNA encoding (1) a GPCR (or empty expression vector); (ii) a cAMP-responsive element-luciferase reporter gene (CRE6X-luc), and (iv) β-galactosidase as a control. Cells were incubated with or without the selected peptide agonist in serum-free medium for 6 h. Luciferase activity was quantified by using Steadylite reagent (Perkin-Elmer). A β-galactosidase assay then was performed after adding the enzyme substrate 2-nitrophenyl β-d-galactopyranoside.
Cellular assays for receptor binding and intracellular signaling were carried out with the compounds of the invention. Briefly, HEK 293 cells were transiently transfected with cDNAs encoding (i) GLP-1R (or the empty expression vector), (ii) the CRE6x-LUC reporter gene (which senses cAMP production triggered by receptor stimulation), and (iii) β-galactosidase (as a control for transfection efficiency). After transfection for 24 h, cells were incubated with a peptide at various concentrations (or control/blank) in serum-free medium for 6 h. The cells were then lysed, SteadyLite reagent (PerkinElmer) is added, and luciferase activity is measured in a TopCount NXT HTS plate luminometer. After further incubation with a chromogenic substrate (2-nitrophenyl β-D-galactopyranoside), optical density at 420 nm is determined by spectrophotometry, as a control to correct for interwell transfection variability. Sigmoidal concentration-response curves of GLP-1R ligand activity is calculated to determine potency.
Plotting concentration versus the luciferase activity yielded quantitative parameters for combined binding (potency) and signaling (efficacy) in a single step. […] DPP4 treated peptides: 10 μl of 0.26 mM peptide were incubated with 2 μL DPP4 in buffer ±DMSO for 18 hrs. Control peptides: 10 μl of 0.26 mM peptide was added to buffer ±DMSO. The final DMSO concentration was the same for all peptides and all peptides were diluted to 0.26 mM concentrations for the DPP4 assay.

[1] = Receptor GLP-1R, agonist potency, read-out: EC50

T1 sequence (P43220 24-463, species assumed): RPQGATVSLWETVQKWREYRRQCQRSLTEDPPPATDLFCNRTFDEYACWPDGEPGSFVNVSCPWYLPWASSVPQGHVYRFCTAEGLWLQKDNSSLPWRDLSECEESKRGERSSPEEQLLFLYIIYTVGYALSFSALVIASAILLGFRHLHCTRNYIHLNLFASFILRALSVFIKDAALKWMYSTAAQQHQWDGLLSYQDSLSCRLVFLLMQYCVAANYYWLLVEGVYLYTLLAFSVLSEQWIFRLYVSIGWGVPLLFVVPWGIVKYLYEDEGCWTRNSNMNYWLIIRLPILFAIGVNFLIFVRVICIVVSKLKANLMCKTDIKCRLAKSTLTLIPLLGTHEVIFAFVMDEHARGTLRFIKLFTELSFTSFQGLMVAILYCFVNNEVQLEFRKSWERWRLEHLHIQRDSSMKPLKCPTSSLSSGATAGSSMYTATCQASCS

Row | EC50 [1] [pM] | Structure (SMILES) | EC50 [pM]
1 | 123 | CC[C@H](C)[C@H](NC(=O)[C@H](Cc1ccccc1)NC(=O)[C@H](CCC(=O)O)NC(=O)[C@H](CCCCN)NC(=O)[C@H](C)NC(=O)[C@H](C)NC(=O)[C@H](CCC(N)=O)NC(=O)CNC(=O)[C@H](CCC(=O)O)NC(=O)[C@H](CC(C)C)NC(=O)[C@H](Cc1ccc(O)cc1)NC(=O)[C@H](CO)NC(=O)[C@H](CO)NC(=O)[C@@H](NC(=O)[C@H](CC(=O)O)NC(=O)[C@H](CO)NC(=O)[C@@H](NC(=O)[C@H](Cc1ccccc1)NC(=O)[C@@H](NC(=O)CNC(=O)[C@H](CCC(=O)O)NC(=O)[C@H](C)NC(=O)[C@H](Cc1c[nH]cn1)NCc1ccc(C2(C(F)(F)F)N=N2)cc1)[C@@H](C)O)[C@@H](C)O)C(C)C)C(=O)N[C@@H](C)C(=O)N[C@@H](Cc1c[nH]c2ccccc12)C(=O)N[C@@H](CC(C)C)C(=O)N[C@H](C(=O)N[C@@H](CCCCN)C(=O)NCC(=O)N[C@@H](CCCNC(=N)N)C(N)=O)C(C)C | –
2 | 3200 | CC[C@H](C)[C@H](NC(=O)[C@H](Cc1ccccc1)NC(=O)[C@H](CCC(=O)O)NC(=O)[C@H](CCCCN)NC(=O)[C@H](C)NC(=O)[C@H](C)NC(=O)[C@H](CCC(N)=O)NC(=O)CNC(=O)[C@H](CCC(=O)O)NC(=O)[C@H](CC(C)C)NC(=O)[C@H](Cc1ccc(O)cc1)NC(=O)[C@H](CO)NC(=O)[C@H](CO)NC(=O)[C@@H](NC(=O)[C@H](CC(=O)O)NC(=O)[C@H](CO)NC(=O)[C@@H](NC(=O)[C@H](Cc1ccccc1)NC(=O)[C@@H](NC(=O)CNC(=O)[C@H](CCC(=O)O)NC(=O)[C@H](C)NC(=O)[C@H](Cc1c[nH]cn1)NC[C@@H](O)[C@@H](O)[C@H](O)[C@H](O)CO)[C@@H](C)O)[C@@H](C)O)C(C)C)C(=O)N[C@@H](C)C(=O)N[C@@H](Cc1c[nH]c2ccccc12)C(=O)N[C@@H](CC(C)C)C(=O)N[C@H](C(=O)N[C@@H](CCCCN)C(=O)NCC(=O)N[C@@H](CCCNC(=N)N)C(N)=O)C(C)C | –
3 | 1 | CC[C@H](C)[C@H](NC(=O)[C@H](Cc1ccccc1)NC(=O)[C@H](CCC(=O)O)NC(=O)[C@H](CCCCN)NC(=O)[C@H](C)NC(=O)[C@H](C)NC(=O)[C@H](CCC(N)=O)NC(=O)CNC(=O)[C@H](CCC(=O)O)NC(=O)[C@H](CC(C)C)NC(=O)[C@H](Cc1ccc(O)cc1)NC(=O)[C@H](CO)NC(=O)[C@H](CO)NC(=O)[C@@H](NC(=O)[C@H](CC(=O)O)NC(=O)[C@H](CO)NC(=O)[C@@H](NC(=O)[C@H](Cc1ccccc1)NC(=O)[C@@H](NC(=O)CNC(=O)[C@H](CCC(=O)O)NC(=O)[C@H](C)NC(=O)[C@H](Cc1c[nH]cn1)NCc1ccc(O)cc1)[C@@H](C)O)[C@@H](C)O)C(C)C)C(=O)N[C@@H](C)C(=O)N[C@@H](Cc1c[nH]c2ccccc12)C(=O)N[C@@H](CC(C)C)C(=O)N[C@H](C(=O)N[C@@H](CCCCN)C(=O)NCC(=O)N[C@@H](CCCNC(=N)N)C(N)=O)C(C)C | –
4 | 6.4 | CCN[C@@H](Cc1c[nH]cn1)C(=O)N[C@@H](C)C(=O)N[C@@H](CCC(=O)O)C(=O)NCC(=O)N[C@H](C(=O)N[C@@H](Cc1ccccc1)C(=O)N[C@H](C(=O)N[C@@H](CO)C(=O)N[C@@H](CC(=O)O)C(=O)N[C@H](C(=O)N[C@@H](CO)C(=O)N[C@@H](CO)C(=O)N[C@@H](Cc1ccc(O)cc1)C(=O)N[C@@H](CC(C)C)C(=O)N[C@@H](CCC(=O)O)C(=O)NCC(=O)N[C@@H](CCC(N)=O)C(=O)N[C@@H](C)C(=O)N[C@@H](C)C(=O)N[C@@H](CCCCN)C(=O)N[C@@H](CCC(=O)O)C(=O)N[C@@H](Cc1ccccc1)C(=O)N[C@H](C(=O)N[C@@H](C)C(=O)N[C@@H](Cc1c[nH]c2ccccc12)C(=O)N[C@@H](CC(C)C)C(=O)N[C@H](C(=O)N[C@@H](CCCCN)C(=O)NCC(=O)N[C@@H](CCCNC(=N)N)C(N)=O)C(C)C)[C@@H](C)CC)C(C)C)[C@@H](C)O)[C@@H](C)O | –
5 | 4.4 | CC[C@H](C)[C@H](NC(=O)[C@H](Cc1ccccc1)NC(=O)[C@H](CCC(=O)O)NC(=O)[C@H](CCCCN)NC(=O)[C@H](C)NC(=O)[C@H](C)NC(=O)[C@H](CCC(N)=O)NC(=O)CNC(=O)[C@H](CCC(=O)O)NC(=O)[C@H](CC(C)C)NC(=O)[C@H](Cc1ccc(O)cc1)NC(=O)[C@H](CO)NC(=O)[C@H](CO)NC(=O)[C@@H](NC(=O)[C@H](CC(=O)O)NC(=O)[C@H](CO)NC(=O)[C@@H](NC(=O)[C@H](Cc1ccccc1)NC(=O)[C@@H](NC(=O)CNC(=O)[C@H](CCC(=O)O)NC(=O)[C@H](C)NC(=O)[C@H](Cc1c[nH]cn1)NCc1ccccc1)[C@@H](C)O)[C@@H](C)O)C(C)C)C(=O)N[C@@H](C)C(=O)N[C@@H](Cc1c[nH]c2ccccc12)C(=O)N[C@@H](CC(C)C)C(=O)N[C@H](C(=O)N[C@@H](CCCCN)C(=O)NCC(=O)N[C@@H](CCCNC(=N)N)C(N)=O)C(C)C [drawing 51] | –
6 | 3.9 | CC[C@H](C)[C@H](NC(=O)[C@H](Cc1ccccc1)NC(=O)[C@H](CCC(=O)O)NC(=O)[C@H](CCCCN)NC(=O)[C@H](C)NC(=O)[C@H](C)NC(=O)[C@H](CCC(N)=O)NC(=O)CNC(=O)[C@H](CCC(=O)O)NC(=O)[C@H](CC(C)C)NC(=O)[C@H](Cc1ccc(O)cc1)NC(=O)[C@H](CO)NC(=O)[C@H](CO)NC(=O)[C@@H](NC(=O)[C@H](CC(=O)O)NC(=O)[C@H](CO)NC(=O)[C@@H](NC(=O)[C@H](Cc1ccccc1)NC(=O)[C@@H](NC(=O)CNC(=O)[C@H](CCC(=O)O)NC(=O)[C@H](C)NC(=O)[C@H](Cc1c[nH]cn1)NCC12CC3CC(CC(C3)C1)C2)[C@@H](C)O)[C@@H](C)O)C(C)C)C(=O)N[C@@H](C)C(=O)N[C@@H](Cc1c[nH]c2ccccc12)C(=O)N[C@@H](CC(C)C)C(=O)N[C@H](C(=O)N[C@@H](CCCCN)C(=O)NCC(=O)N[C@@H](CCCNC(=N)N)C(N)=O)C(C)C | –
7 | 4.1 | CC[C@H](C)[C@H](NC(=O)[C@H](Cc1ccccc1)NC(=O)[C@H](CCC(=O)O)NC(=O)[C@H](CCCCN)NC(=O)[C@H](C)NC(=O)[C@H](C)NC(=O)[C@H](CCC(N)=O)NC(=O)CNC(=O)[C@H](CCC(=O)O)NC(=O)[C@H](CC(C)C)NC(=O)[C@H](Cc1ccc(O)cc1)NC(=O)[C@H](CO)NC(=O)[C@H](CO)NC(=O)[C@@H](NC(=O)[C@H](CC(=O)O)NC(=O)[C@H](CO)NC(=O)[C@@H](NC(=O)[C@H](Cc1ccccc1)NC(=O)[C@@H](NC(=O)CNC(=O)[C@H](CCC(=O)O)NC(=O)[C@H](C)NC(=O)[C@H](Cc1c[nH]cn1)NC(C)C)[C@@H](C)O)[C@@H](C)O)C(C)C)C(=O)N[C@@H](C)C(=O)N[C@@H](Cc1c[nH]c2ccccc12)C(=O)N[C@@H](CC(C)C)C(=O)N[C@H](C(=O)N[C@@H](CCCCN)C(=O)NCC(=O)N[C@@H](CCCNC(=N)N)C(N)=O)C(C)C | –
8 | 3.7 | CC[C@H](C)[C@H](NC(=O)[C@H](Cc1ccccc1)NC(=O)[C@H](CCC(=O)O)NC(=O)[C@H](CCCCN)NC(=O)[C@H](C)NC(=O)[C@H](C)NC(=O)[C@H](CCC(N)=O)NC(=O)CNC(=O)[C@H](CCC(=O)O)NC(=O)[C@H](CC(C)C)NC(=O)[C@H](Cc1ccc(O)cc1)NC(=O)[C@H](CO)NC(=O)[C@H](CO)NC(=O)[C@@H](NC(=O)[C@H](CC(=O)O)NC(=O)[C@H](CO)NC(=O)[C@@H](NC(=O)[C@H](Cc1ccccc1)NC(=O)[C@@H](NC(=O)CNC(=O)[C@H](CCC(=O)O)NC(=O)[C@H](C)NC(=O)[C@H](Cc1c[nH]cn1)NCC(C)C)[C@@H](C)O)[C@@H](C)O)C(C)C)C(=O)N[C@@H](C)C(=O)N[C@@H](Cc1c[nH]c2ccccc12)C(=O)N[C@@H](CC(C)C)C(=O)N[C@H](C(=O)N[C@@H](CCCCN)C(=O)NCC(=O)N[C@@H](CCCNC(=N)N)C(N)=O)C(C)C [drawing 47] | –
9 | – | CC[C@H](C)[C@H](NC(=O)[C@H](Cc1ccccc1)NC(=O)[C@H](CCC(=O)O)NC(=O)[C@H](CCCCN)NC(=O)[C@H](C)NC(=O)[C@H](C)NC(=O)[C@H](CCC(N)=O)NC(=O)CNC(=O)[C@H](CCC(=O)O)NC(=O)[C@H](CC(C)C)NC(=O)[C@H](Cc1ccc(O)cc1)NC(=O)[C@H](CO)NC(=O)[C@H](CO)NC(=O)[C@@H](NC(=O)[C@H](CC(=O)O)NC(=O)[C@H](CO)NC(=O)[C@@H](NC(=O)[C@H](Cc1ccccc1)NC(=O)[C@@H](NC(=O)CNC(=O)[C@H](CCC(=O)O)NC(=O)[C@H](C)NC(=O)[C@H](Cc1c[nH]cn1)NC[C@H](C)N)[C@@H](C)O)[C@@H](C)O)C(C)C)C(=O)N[C@@H](C)C(=O)N[C@@H](Cc1c[nH]c2ccccc12)C(=O)N[C@@H](CC(C)C)C(=O)N[C@H](C(=O)N[C@@H](CCCCN)C(=O)NCC(=O)N[C@@H](CCCNC(=N)N)C(N)=O)C(C)C | 2.6
